PubChem BioAssay (NCI)
Where “and” joins values, the source holds several entries; their conditions need not be identical. Identical values can stand only once.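 Where inhibition never reached the appropriate level, the endpoint shown equals the highest concentration tested. Otherwise, values were interpolated linearly from a five-concentration, 48-hour dose response in 96-well plates. GI50 = concentration required for 50% inhibition of growth. TGI marks complete inhibition of growth.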

How the values were obtained:
Assay in all cases: growth of human tumour cells (NCI), 48 h
786-0 renal = system: 786-0 renal
MALME-3M melanoma = system: MALME-3M melanoma
NCI-H226 lung = system: NCI-H226 lung
NCI-H23 lung = system: NCI-H23 lung
NCI-H522 lung = system: NCI-H522 lung
OVCAR-8 ovarian = system: OVCAR-8 ovarian
RXF 393 renal = system: RXF 393 renal
SK-MEL-5 melanoma = system: SK-MEL-5 melanoma
SNB-19 CNS = system: SNB-19 CNS
SNB-75 CNS = system: SNB-75 CNS

COC1CCC(N2C(=O)CNc3ncc(-c4ccc(C(C)(C)O)nc4)nc32)CC1 (stereo not drawn)
GI50 (786-0 renal): 962 nM and 243 nM
TGI (786-0 renal): > 32100 nM
GI50 (MALME-3M melanoma): 228 nM and 28.7 nM
TGI (MALME-3M melanoma): 2800 nM and 352 nM
GI50 (NCI-H226 lung): 305 nM and 226 nM
TGI (NCI-H226 lung): > 41800 nM
GI50 (NCI-H23 lung): 1160 nM and 350 nM
TGI (NCI-H23 lung): > 45100 nM
GI50 (NCI-H522 lung): 322 nM and 65.6 nM
TGI (NCI-H522 lung): 2630 nM
GI50 (OVCAR-8 ovarian): 1270 nM and 436 nM
TGI (OVCAR-8 ovarian): > 35200 nM
GI50 (RXF 393 renal): 373 nM and 187 nM
TGI (RXF 393 renal): 3660 nM and 2320 nM
GI50 (SK-MEL-5 melanoma): 766 nM and 149 nM
TGI (SK-MEL-5 melanoma): 2790 nM and 1460 nM
GI50 (SNB-19 CNS): 2020 nM and 1570 nM
TGI (SNB-19 CNS): > 36200 nM
GI50 (SNB-75 CNS): 281 nM and 54.3 nM
TGI (SNB-75 CNS): 3540 nM and 1600 nM

CC(C)CCC[C@@H](C)[C@H]1CC[C@H]2[C@@H]3CC=C4C[C@@H](C(C(=O)O)C(=O)O)CC[C@]4(C)[C@H]3CC[C@]12C
GI50 (786-0 renal): 288 nM
TGI (786-0 renal): 2510 nM
GI50 (MALME-3M melanoma): 134 nM
TGI (MALME-3M melanoma): 502 nM
GI50 (NCI-H226 lung): 209 nM
TGI (NCI-H226 lung): 622 nM
GI50 (NCI-H23 lung): 147 nM
TGI (NCI-H23 lung): 630 nM
GI50 (NCI-H522 lung): 153 nM
TGI (NCI-H522 lung): 527 nM
GI50 (OVCAR-8 ovarian): 158 nM
TGI (OVCAR-8 ovarian): 807 nM
GI50 (RXF 393 renal): 192 nM
TGI (RXF 393 renal): 662 nM
GI50 (SK-MEL-5 melanoma): 113 nM
TGI (SK-MEL-5 melanoma): 266 nM
GI50 (SNB-19 CNS): 237 nM
TGI (SNB-19 CNS): 8910 nM
GI50 (SNB-75 CNS): 166 nM
TGI (SNB-75 CNS): 1470 nM

O=C1C(Cl)=C(Nc2cccc(Cl)c2)C(=O)N1Cc1ccc(Cl)cc1Cl
TGI (786-0 renal): 4930 nM
GI50 (MALME-3M melanoma): 4170 nM
TGI (MALME-3M melanoma): 19000 nM
TGI (NCI-H226 lung): 2260 nM
GI50 (NCI-H23 lung): 2140 nM
TGI (NCI-H23 lung): 25600 nM
GI50 (NCI-H522 lung): 265 nM
TGI (NCI-H522 lung): 5860 nM
GI50 (OVCAR-8 ovarian): 60.3 nM
TGI (OVCAR-8 ovarian): > 36100 nM
GI50 (RXF 393 renal): 181 nM
TGI (RXF 393 renal): 3830 nM
GI50 (SK-MEL-5 melanoma): 321 nM
TGI (SK-MEL-5 melanoma): 4500 nM
GI50 (SNB-19 CNS): 842 nM
TGI (SNB-19 CNS): 18000 nM
GI50 (SNB-75 CNS): 1290 nM
TGI (SNB-75 CNS): 9920 nM

O=C1C(=O)N(c2ccc(Cl)cc2Cl)C(=O)C(=O)C1c1nc2ccccc2s1
TGI (786-0 renal): > 100000 nM
TGI (MALME-3M melanoma): > 100000 nM
TGI (NCI-H226 lung): > 100000 nM
TGI (NCI-H23 lung): > 100000 nM
TGI (NCI-H522 lung): > 57200 nM
TGI (OVCAR-8 ovarian): > 100000 nM
TGI (RXF 393 renal): > 100000 nM
TGI (SK-MEL-5 melanoma): > 100000 nM
TGI (SNB-19 CNS): > 100000 nM
TGI (SNB-75 CNS): 81800 nM

Cc1ccc(C(=O)/C(=C/c2ccc([N+](=O)[O-])cc2)SCc2ccc(Cl)cc2)cc1
GI50 (786-0 renal): 1660 nM
TGI (786-0 renal): 3580 nM
GI50 (MALME-3M melanoma): 4340 nM
TGI (MALME-3M melanoma): 19200 nM
GI50 (NCI-H226 lung): > 100000 nM
TGI (NCI-H226 lung): > 100000 nM
GI50 (NCI-H23 lung): 2730 nM
TGI (NCI-H23 lung): 20700 nM
GI50 (NCI-H522 lung): 1640 nM
TGI (NCI-H522 lung): 3540 nM
GI50 (OVCAR-8 ovarian): 1860 nM
TGI (OVCAR-8 ovarian): 5640 nM
GI50 (RXF 393 renal): 2380 nM
TGI (RXF 393 renal): 7030 nM
GI50 (SK-MEL-5 melanoma): 2340 nM
TGI (SK-MEL-5 melanoma): 6430 nM
GI50 (SNB-19 CNS): 1170 nM
TGI (SNB-19 CNS): 3020 nM
GI50 (SNB-75 CNS): 20400 nM
TGI (SNB-75 CNS): > 100000 nM

COC1=CC(=O)c2nc(-c3ccncc3)[nH]c2C1=O
GI50 (786-0 renal): > 100000 nM
TGI (786-0 renal): > 100000 nM
GI50 (MALME-3M melanoma): > 100000 nM
TGI (MALME-3M melanoma): > 100000 nM
GI50 (NCI-H226 lung): > 100000 nM
TGI (NCI-H226 lung): > 100000 nM
GI50 (NCI-H23 lung): > 100000 nM
TGI (NCI-H23 lung): > 100000 nM
GI50 (NCI-H522 lung): > 100000 nM
TGI (NCI-H522 lung): > 100000 nM
GI50 (OVCAR-8 ovarian): > 100000 nM
TGI (OVCAR-8 ovarian): > 100000 nM
GI50 (RXF 393 renal): > 100000 nM
TGI (RXF 393 renal): > 100000 nM
GI50 (SK-MEL-5 melanoma): > 100000 nM
TGI (SK-MEL-5 melanoma): > 100000 nM
GI50 (SNB-19 CNS): > 100000 nM
TGI (SNB-19 CNS): > 100000 nM
GI50 (SNB-75 CNS): 88300 nM
TGI (SNB-75 CNS): > 100000 nM

COC1(OC)CCC2C1C1CCC(OC)(OC)C21 (stereo not drawn)
TGI (786-0 renal): > 50000 nM
TGI (MALME-3M melanoma): > 50000 nM
TGI (NCI-H226 lung): > 50000 nM
TGI (NCI-H23 lung): > 50000 nM
TGI (NCI-H522 lung): > 50000 nM
TGI (OVCAR-8 ovarian): > 50000 nM
TGI (RXF 393 renal): > 50000 nM
TGI (SK-MEL-5 melanoma): > 50000 nM
TGI (SNB-19 CNS): > 50000 nM
TGI (SNB-75 CNS): > 50000 nM
